In ChEMBL document CHEMBL4393657, “Tetrazole hybrids and their antifungal activities” (2019):
Converted amounts (≈) assume the structure as drawn.

Assays:
Assay type in all cases: functional
Nakaseomyces glabratus [1] = assay: Antifungal activity against Candida glabrata NCIM 3236 assessed as reduction in fungal cell growth incubated for 24 hrs by broth microdilution method; conditions: NCIM 3236, 24 h
Nakaseomyces glabratus [2] = assay: Potency index, ratio for MIC of fluconazole to MIC of compound for antifungal activity against Candida glabrata NCIM 3236 assessed as reduction in fungal cell growth incubated for 24 hrs by broth microdilution method
Candida tropicalis [3] = assay: Antifungal activity against Candida tropicalis NCIM 3110 assessed as reduction in fungal cell growth incubated for 48 hrs by broth microdilution method; conditions: NCIM 3110, 48 h
Candida tropicalis [4] = assay: Potency index, ratio for MIC of fluconazole to MIC of compound for Antifungal activity against Candida tropicalis NCIM 3110 assessed as reduction in fungal cell growth incubated for 24 hrs by broth microdilution method
Candida albicans [5] = assay: Antifungal activity against Candida albicans MTCC 227 assessed as reduction in fungal cell growth incubated for 24 hrs by broth microdilution method; conditions: MTCC 227, 24 h
Aspergillus flavus [6] = assay: Antifungal activity against Aspergillus flavus NCIM 524 assessed as reduction in fungal cell growth incubated for 3 to 4 days by disk diffusion method
Talaromyces marneffei = assay: Antifungal activity against Penicillium marneffei assessed as reduction in fungal cell growth incubated for 3 to 4 days by disk diffusion method
Aspergillus fumigatus [7] = assay: Antifungal activity against Aspergillus fumigatus NCIM 902 assessed as reduction in fungal cell growth incubated for 3 to 4 days by disk diffusion method
[8] = tested on: Trichophyton mentagrophytes; assay: Antifungal activity against Trichophyton mentagrophytes assessed as reduction in fungal cell growth incubated for 3 to 4 days by disk diffusion method
Aspergillus niger [9] = assay: Antifungal activity against Aspergillus niger
Aspergillus fumigatus [10] = assay: Antifungal activity against Aspergillus fumigatus
Candida albicans [11] = assay: Antifungal activity against Candida albicans
Saccharomyces cerevisiae = assay: Antifungal activity against Saccharomyces cerevisiae
Pichia kudriavzevii [12] = assay: Antifungal activity against Candida krusei assessed as reduction in fungal cell growth incubated for 48 hrs by broth microdilution method
Candida parapsilosis = assay: Antifungal activity against Candida parapsilosis ATCC 22019 assessed as reduction in fungal cell growth incubated for 48 hrs by broth microdilution method; conditions: Lodderomyces parapsilosis, ATCC 22019, 48 h
Candida tropicalis [13] = assay: Antifungal activity against Candida tropicalis assessed as reduction in fungal cell growth incubated for 48 hrs by broth microdilution method
Aspergillus niger [14] = assay: Antifungal activity against Aspergillus niger assessed as reduction in fungal cell growth incubated for 72 hrs by broth microdilution method
Candida albicans [15] = assay: Antifungal activity against Candida albicans V-01-191A-261 assessed as reduction in fungal cell growth incubated for 48 hrs by broth microdilution method; conditions: V-01-191A-261, 48 h
Cryptococcus neoformans = assay: Antifungal activity against Cryptococcus neoformans LA314 assessed as reduction in fungal cell growth incubated for 48 hrs by broth microdilution method; conditions: LA314, 48 h
Nakaseomyces glabratus [16] = assay: Antifungal activity against Candida glabrata assessed as reduction in fungal cell growth incubated for 48 hrs by broth microdilution method
Nakaseomyces glabratus [17] = assay: Antifungal activity against Candida glabrata ATCC 36583 by broth microdilution method
Candida tropicalis [18] = assay: Antifungal activity against Candida tropicalis by broth microdilution method
Candida albicans [19] = assay: Antifungal activity against Candida albicans MTCC183 assessed as reduction in fungal cell growth incubated for 24 to 48 hrs
Aspergillus niger [20] = assay: Antifungal activity against Aspergillus niger MTCC281 assessed as reduction in fungal cell growth incubated for 24 to 48 hrs
Aspergillus fumigatus [21] = assay: Antifungal activity against Aspergillus fumigatus assessed as reduction in fungal cell growth incubated for 24 and 48 hrs by broth microdilution method
Candida albicans [22] = assay: Potency index, ratio for MIC of griseofulvin to MIC of compound for antifungal activity against Candida albicans MTCC 227 assessed as reduction in fungal cell growth incubated for 24 and 48 hrs by broth microdilution method
Candida albicans [23] = assay: Antifungal activity against Candida albicans MTCC 227 assessed as reduction in fungal cell growth incubated for 24 and 48 hrs by broth microdilution method
Aspergillus flavus [24] = assay: Antifungal activity against Aspergillus flavus assessed as reduction in fungal cell growth incubated for 24 and 72 hrs by cup plate method
Candida albicans [25] = assay: Antifungal activity against Candida albicans assessed as reduction in fungal cell growth incubated for 24 and 72 hrs by cup plate method
Aspergillus niger [26] = assay: Antifungal activity against Aspergillus niger assessed as inhibition zone at 1 ug/ml incubated for 24 to 72 hrs by disk diffusion method
Aspergillus fumigatus [27] = assay: Antifungal activity against Aspergillus fumigatus assessed as inhibition zone at 1 ug/ml incubated for 24 to 72 hrs by disk diffusion method
Candida albicans [28] = assay: Antifungal activity against Candida albicans ATCC 885653 assessed as inhibition zone at 100 ug/ml incubated for 48 to 72 hrs by agar-diffusion method
Aspergillus flavus [29] = assay: Antifungal activity against Aspergillus flavus assessed as inhibition zone at 1 ug/ml incubated for 24 to 72 hrs by disk diffusion method
Trichoderma harzianum = assay: Antifungal activity against Trichoderma harzianum assessed as inhibition zone at 1 ug/ml incubated for 24 to 72 hrs by disk diffusion method
Candida tropicalis [30] = assay: Antifungal activity against Candida tropicalis assessed as reduction in fungal cell growth incubated for 24 hrs by broth microdilution method
Candida albicans [31] = assay: Antifungal activity against Candida albicans assessed as reduction in fungal cell growth incubated for 24 hrs by broth microdilution method
Pichia kudriavzevii [32] = assay: Antifungal activity against Candida krusei assessed as reduction in fungal cell growth incubated for 24 hrs by broth microdilution method
Nakaseomyces glabratus [33] = assay: Antifungal activity against Candida glabrata assessed as reduction in fungal cell growth incubated for 24 hrs by broth microdilution method

In the case of O=c1c(OCc2nnn[nH]2)c(-c2ccc(F)cc2)oc2c(Cl)cc(Cl)cc12, the MIC (Nakaseomyces glabratus [1]) is reported as 12.5 to 50 µg/mL (≈ 30.7 to 123 µM), the Ratio (Nakaseomyces glabratus [2]) is reported as 8 - 64 and the MIC (Candida tropicalis [3]) is reported as 12.5 to 50 µg/mL (≈ 30.7 to 123 µM). For the same molecule, the Ratio (Candida tropicalis [4]) was 8 - 64 and the MIC (Candida albicans [5]) was 12.5 to 50 µg/mL (≈ 30.7 to 123 µM).
c1ccc(Cn2nnnc2SCCCSc2nnnn2-c2ccccc2)cc1 showed an MIC (Aspergillus flavus [6]) of 6.25 µg/mL (≈ 15.2 µM), an MIC (Talaromyces marneffei) of 6.25 µg/mL (≈ 15.2 µM) and an MIC (Aspergillus fumigatus [7]) of 6.25 µg/mL (≈ 15.2 µM). It also gave an MIC [8] of 6.25 µg/mL (≈ 15.2 µM).
With Cc1cccc2c(=O)c(OCc3nnn[nH]3)c(-c3ccc(F)cc3)oc12 the MIC (Nakaseomyces glabratus [1]) was 12.5 to 50 µg/mL (≈ 35.5 to 142 µM), the Ratio (Nakaseomyces glabratus [2]) was 8 - 64 and the MIC (Candida tropicalis [3]) was 12.5 to 50 µg/mL (≈ 35.5 to 142 µM). The Ratio (Candida tropicalis [4]) was 8 - 64 and the MIC (Candida albicans [5]) was 12.5 to 50 µg/mL (≈ 35.5 to 142 µM).
With O=C(/C=C/c1ccc([N+](=O)[O-])cc1)c1ccc(-n2nnnc2-c2nc(-c3nnnn3-c3ccc(C(=O)/C=C/c4ccc([N+](=O)[O-])cc4)cc3)nc(-c3nnnn3-c3ccc(C(=O)/C=C/c4ccc([N+](=O)[O-])cc4)cc3)n2)cc1 the MIC (Aspergillus niger [9]) was < 2.5 µg/mL, the MIC (Aspergillus fumigatus [10]) was < 2.5 µg/mL and the MIC (Candida albicans [11]) was < 2.5 µg/mL. The MIC (Saccharomyces cerevisiae) was < 2.5 µg/mL.
In the case of CC[C@@H]([C@H](C)O)n1ncn(-c2ccc(N3CCN(c4ccc(OC[C@@H]5CO[C@@](Cn6cncn6)(c6ccc(F)cc6F)C5)cc4)CC3)cc2)c1=O [POSACONAZOLE], the MIC (Pichia kudriavzevii [12]) is reported as 0.12 to 1 µg/mL (≈ 0.171 to 1.43 µM), the MIC (Candida parapsilosis) is reported as 0.12 to 1 µg/mL (≈ 0.171 to 1.43 µM) and the MIC (Candida tropicalis [13]) is reported as 0.12 to 1 µg/mL (≈ 0.171 to 1.43 µM). For the same molecule, the MIC (Aspergillus niger [14]) was 0.12 to 1 µg/mL (≈ 0.171 to 1.43 µM), the MIC (Candida albicans [15]) was 0.12 to 1 µg/mL (≈ 0.171 to 1.43 µM) and the MIC (Cryptococcus neoformans) was 0.12 to 1 µg/mL (≈ 0.171 to 1.43 µM). It also gave an MIC (Nakaseomyces glabratus [16]) of 0.12 to 1 µg/mL (≈ 0.171 to 1.43 µM).
For Cn1nnnc1SCC(=O)Nc1ccc(-c2nc3cc(Cl)c(Cl)cc3n2C)cc1, the MIC (Nakaseomyces glabratus [17]) was 25 to 50 µg/mL (≈ 55.8 to 112 µM), the MIC (Candida albicans [11]) was 25 to 50 µg/mL (≈ 55.8 to 112 µM) and the MIC (Candida tropicalis [18]) was 25 to 50 µg/mL (≈ 55.8 to 112 µM).
With c1cnc(-c2nn3nnnc3o2)cn1 the MIC (Candida albicans [19]) was 50 µg/mL (≈ 264 µM) and the MIC (Aspergillus niger [20]) was 100 µg/mL (≈ 529 µM).
With Cc1cc2oc(-c3ccc(F)cc3)c(OCc3nnn[nH]3)c(=O)c2cc1Cl the MIC (Nakaseomyces glabratus [1]) was 12.5 to 50 µg/mL (≈ 32.3 to 129 µM), the Ratio (Nakaseomyces glabratus [2]) was 16 - 64 and the MIC (Candida tropicalis [3]) was 12.5 to 50 µg/mL (≈ 32.3 to 129 µM). For the same molecule, the Ratio (Candida tropicalis [4]) was 16 - 64 and the MIC (Candida albicans [5]) was 12.5 to 25 µg/mL (≈ 32.3 to 64.6 µM).
For Cc1ccc2[nH]c(-c3cc4cc(Cl)ccc4n4nnnc34)nc2c1, the MIC (Aspergillus fumigatus [21]) was 125 to 1000 µg/mL (≈ 373 to 2990 µM), the Ratio (Candida albicans [22]) was 4 and the MIC (Candida albicans [23]) was 125 µg/mL (≈ 373 µM).
Clc1ccc(COC(Cn2ccnc2)c2ccc(Cl)cc2Cl)c(Cl)c1 (configuration not stated) [MICONAZOLE] showed an MIC (Nakaseomyces glabratus [1]) of 400 µg/mL (≈ 961 µM), an MIC (Candida albicans [19]) of 25 µg/mL (≈ 60.1 µM) and an MIC (Aspergillus niger [20]) of 12.5 µg/mL (≈ 30 µM). It also gave an MIC (Candida albicans [5]) of 12.5 µg/mL (≈ 30 µM).
For COC1=CC(=O)C[C@@H](C)[C@]12Oc1c(Cl)c(OC)cc(OC)c1C2=O [GRISEOFULVIN], the MIC (Aspergillus flavus [24]) was 10 µg/mL (≈ 28.3 µM), the MIC (Candida albicans [23]) was 500 µg/mL (≈ 1420 µM) and the MIC (Candida albicans [25]) was 10 µg/mL (≈ 28.3 µM).
C[C@@H](c1ncncc1F)[C@](O)(Cn1cncn1)c1ccc(F)cc1F [VORICONAZOLE] gave an MIC (Pichia kudriavzevii [12]) of 0.015 to 0.5 µg/mL (≈ 0.0429 to 1.43 µM), an MIC (Candida parapsilosis) of 0.015 to 0.5 µg/mL (≈ 0.0429 to 1.43 µM) and an MIC (Candida tropicalis [13]) of 0.015 to 0.5 µg/mL (≈ 0.0429 to 1.43 µM). It also gave an MIC (Aspergillus niger [14]) of 0.015 to 0.5 µg/mL (≈ 0.0429 to 1.43 µM), an MIC (Candida albicans [15]) of 0.015 to 0.5 µg/mL (≈ 0.0429 to 1.43 µM) and an MIC (Cryptococcus neoformans) of 0.015 to 0.5 µg/mL (≈ 0.0429 to 1.43 µM). It also gave an MIC (Nakaseomyces glabratus [16]) of 0.015 to 0.5 µg/mL (≈ 0.0429 to 1.43 µM).
Work on NYSTATIN yielded an inhibition zone (IZ) (Aspergillus niger [26]) of 2.4 to 2.8 mm, an inhibition zone (IZ) (Aspergillus fumigatus [27]) of 2.4 to 2.8 mm and an inhibition zone (IZ) (Candida albicans [28]) of 21 mm. It also gave an MIC (Candida albicans [23]) of 100 µg/mL, an inhibition zone (IZ) (Aspergillus flavus [29]) of 2.4 to 2.8 mm and an inhibition zone (IZ) (Trichoderma harzianum) of 2.4 to 2.8 mm.
In the case of Fc1cc2nc(SCc3ccc(-c4ccccc4-c4nnnn4C(c4ccccc4)(c4ccccc4)c4ccccc4)cc3)[nH]c2cc1-n1ccnc1, the MIC (Candida tropicalis [30]) is reported as 8 to 16 µg/mL (≈ 11.3 to 22.5 µM), the MIC (Candida albicans [31]) is reported as 8 to 16 µg/mL (≈ 11.3 to 22.5 µM) and the MIC (Pichia kudriavzevii [32]) is reported as 8 to 16 µg/mL (≈ 11.3 to 22.5 µM). It also gave an MIC (Nakaseomyces glabratus [33]) of 8 to 16 µg/mL (≈ 11.3 to 22.5 µM).
